Source: publication PMC4467461, “Small-molecule activation of SERCA2a SUMOylation for the treatment of heart failure” (Nature Communications, 2015)
Like-named read-outs stand apart in the source and are kept apart here.

Assays:
[1] = biological target: T1, Recombinant human SUMO-specific E1 (Homo sapiens, UniProt Q9UBT2); experiment: SUMO E1 ATP hydrolysis, fluorogenic pyrophosphate assay; format: biochemical; details: E1 0.05 μM, Ubc9 0.25 μM, SUMO-1 12.5 μM, ATP 1 mM, 30 min at 37 °C; read-out: ATP-dependent activation of SUMO E1, EC50
T1 construct: purchased R&D Systems
T1 sequence (Q9UBE0 whole entry): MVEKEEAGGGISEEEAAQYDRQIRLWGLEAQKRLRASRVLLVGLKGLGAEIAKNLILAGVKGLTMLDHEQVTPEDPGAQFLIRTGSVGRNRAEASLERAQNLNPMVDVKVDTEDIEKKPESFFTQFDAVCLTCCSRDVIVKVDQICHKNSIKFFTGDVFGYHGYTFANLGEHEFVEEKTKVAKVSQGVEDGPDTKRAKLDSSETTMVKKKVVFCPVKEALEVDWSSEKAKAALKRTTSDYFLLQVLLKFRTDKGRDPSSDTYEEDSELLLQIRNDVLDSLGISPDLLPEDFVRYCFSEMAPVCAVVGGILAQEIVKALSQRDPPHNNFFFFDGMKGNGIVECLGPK
T1 sequence (Q9UBT2 whole entry): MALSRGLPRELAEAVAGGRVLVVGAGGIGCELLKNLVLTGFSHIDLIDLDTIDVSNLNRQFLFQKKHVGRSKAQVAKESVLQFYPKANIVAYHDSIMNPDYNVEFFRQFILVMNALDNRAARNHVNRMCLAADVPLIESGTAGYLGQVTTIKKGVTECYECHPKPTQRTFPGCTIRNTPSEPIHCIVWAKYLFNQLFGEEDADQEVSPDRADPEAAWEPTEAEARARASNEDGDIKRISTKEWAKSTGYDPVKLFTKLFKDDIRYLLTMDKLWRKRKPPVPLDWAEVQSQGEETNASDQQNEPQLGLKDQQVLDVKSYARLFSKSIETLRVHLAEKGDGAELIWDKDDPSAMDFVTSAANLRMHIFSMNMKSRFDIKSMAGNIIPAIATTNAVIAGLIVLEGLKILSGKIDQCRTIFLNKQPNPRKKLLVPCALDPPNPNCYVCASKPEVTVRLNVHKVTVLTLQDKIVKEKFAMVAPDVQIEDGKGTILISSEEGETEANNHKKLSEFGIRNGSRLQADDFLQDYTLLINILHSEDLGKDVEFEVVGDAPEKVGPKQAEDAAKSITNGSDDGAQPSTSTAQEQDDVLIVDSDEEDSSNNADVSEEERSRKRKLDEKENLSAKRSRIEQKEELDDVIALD
Method: Figure 3 SUMO-specific activating enzyme, E1, is a direct target of N106. Mechanism of action of N106 on individual steps in the SUMOylation cascade in vitro. (a) Inorganic pyrophosphate resulting from ATP hydrolysis in E1-catalysed SUMO-1 activation in the presence of increasing concentration of N106 compound was assessed by fluorogenic pyrophosphate assay kit. Recombinant human SUMO-specific E1 (0.05 μM), human Ubc9 (0.25 μM), human SUMO-1 (12.5 μM) and ATP (1 mM) were incubated with increasing concentration of N106 for 30 min at 37 °C and quantified using a fluorescence microplate reader. (b) The SAE2-SUMO-1 conjugation was detected followed by western blotting with anti-SAE2 antibodies. […] (e) ATP hydrolytic activity of WT and mutant SUMO E1 are determined. (f) The E1-SUMO-1 conjugation was detected followed by western blot analysis with anti-SAE2 antibody. *The SAE2-SUMO-1 conjugated bands. […]
Biochemical activity of SUMO-specific E1 enzymes was examined by ATPase assay and in-vitro gel-shifting assays. ATP hydrolysis activity of E1 enzymes was measured by using pyrophosphate assay kit (Abcam Inc.). […] The E1-thioester formation was analysed in reaction mixtures containing 0.05 μM E1, 12.5 μM SUMO-1 and 1 mM ATP with N106 or DMSO. The E1-dependent E2-SUMO-1 thioester formation was assessed using reaction containing 0.05 μM E1, 0.25 μM E2, 12.5 μM SUMO-1 and 1 mM ATP with N106 or DMSO. […]

[2] = Single-dose pharmacokinetic profile; format: in vivo, mice; details: male, mouse, plasma; for Cmax / half-life: 10 mg/kg
Method: The male mice were received with a small molecule N106 at 10 mg kg^−1 intravenously and 10 mg kg^−1 orally (PO). The bloods were corrected at 30 min, 1, 2 and 4 h after administration intravenously and at 30 min, 1, 2 and 4 h after treatment for oral administration studies. Plasma samples from these studies were extracted by plasma separator tube containing lithium heparin (BD Microcontainer, NJ, USA). Plasma concentrations of N106 were determined by HPLC analysis and pharmacokinetic parameters. Three mice for each time point were used.
Supplementary Figure 13. Pharmacokinetic profile of N106 following administration to mice. The murine PK profile of single dose of N106 (10 mg.kg-1) was determined following intravenously (IV) and oral (PO) administration and analysis of plasma samples was performed by high performance liquid chromatography. Data represents mean value of N106 plasma concentrations in mice. n = 3 mice per each time point. Cmax, maximum concentration; T ½, half time; Tmax, time to peak concentration.

- EC50 [1]: 2450 ± 130 nM
- Cmax ([2]; iv, mice, 10 mg kg^−1 intravenous): 2240 nM
- half-life ([2]; iv, mice, 10 mg kg^−1 intravenous, read-out: half-life): 65.4 min
- bioavailability ([2]; oral, 10 mg kg^−1, mice, 10 mg kg^−1 PO vs IV, read-out: oral bioavailability (F%)): 56%
- Cmax ([2]; po, mice, 10 mg kg^−1 oral): 457 nM
- half-life ([2]; po, mice, 10 mg kg^−1 oral, read-out: terminal elimination half-life (t1/2)): 19 min
- Tmax ([2]; mice, 10 mg kg^−1 oral): 30 min
Structure (SMILES): COc1ccc(-c2nnc(Nc3nc4c(OC)cccc4s3)o2)cc1 [Compound N106, N-(4-methoxybenzo[d]thiazol-2-yl)-5-(4-methoxyphenyl)-1,3,4-oxadiazol-2-amine]
